# In US11000033B2, “Ketone or oxime compound, and herbicide” (NISSAN CHEMICAL CORPORATION, priority 2014, dated 2021):
# Assays:
# Format in all cases: in vivo
# Galium spurium [1] = test: Test Example 4: herbicidal effect by soil treatment (symbol Q); details: 320 g/ha
# Summary of the method: (§1)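 Seeds were sown in sterilized diluvial soil, covered with about 1.5 cm of soil, and the soil surface was sprayed with a water-diluted emulsion of the compound at a predetermined rate. Plants grew in a greenhouse at 25° C. to 30° C.; effects were scored visually 3 weeks after application.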
# Avena fatua = test: Test Example 4: herbicidal effect by soil treatment (symbol I); details: 320 g/ha
# Summary of the method: as §1
# Veronica persica [2] = test: Test Example 4: herbicidal effect by soil treatment (symbol R); details: 320 g/ha
# Summary of the method: as §1
# rice plant = test: Test Example 5: effect on crop by foliage application, plastic box (symbol b); details: 320 g/ha, 3 weeks after application
# Summary of the method: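 Plants were raised from seed in a greenhouse (25° C. to 30° C.) after sowing in a plastic box of sterilized diluvial soil.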
# [3] = test system: Echinochloa crus-galli var. crus-galli; test: Test Example 3: herbicidal effect by foliage application, Wagner pot (symbol H); details: application herbicide amount 320 g/ha
# Summary of the method: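 The compound, formulated as an emulsion and diluted with water to a predetermined rate, is applied uniformly to leaves of two-week-old seedlings growing in submerged alluvial soil at 25–30 °C. Rice is included. Each plant is assessed 3 weeks later using defined criteria.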
# wheat = test: Test Example 4: effect on crop by soil treatment (symbol e); details: 320 g/ha
# Summary of the method: (§2)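 Plants grew in a 25° C. to 30° C. greenhouse after spot-sowing of seeds, including beet, rapeseed, wheat and rice, into sterilized diluvial soil under roughly 1.5 cm of cover soil.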
# Digitaria ciliaris = test: Test Example 5: herbicidal effect by foliage application, plastic box (symbol F); details: 320 g/ha, 3 weeks after application
# Summary of the method: (§3)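 Herbicide, formulated as an emulsion and diluted in water, is sprayed onto the aerial parts of 14-day seedlings. These were grown at 25° C. to 30° C. in sterilized diluvial soil; effects are graded after 3 weeks.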
# Stellaria media = test: Test Example 4: herbicidal effect by soil treatment (symbol P); details: 320 g/ha
# Summary of the method: as §1
# Galium spurium [4] = test: Test Example 5: herbicidal effect by foliage application, plastic box (symbol Q); details: 320 g/ha, 3 weeks after application
# Summary of the method: as §3
# rapeseed = test: Test Example 4: effect on crop by soil treatment (symbol g); details: 320 g/ha
# Summary of the method: as §2
# Veronica persica [5] = test: Test Example 5: herbicidal effect by foliage application, plastic box (symbol R); details: 320 g/ha, 3 weeks after application
# Summary of the method: as §3
# Monochoria vaginalis = test: Test Example 2: herbicidal activity, application during weed generation in submerged conditions (symbol C); details: Table 23; application herbicide amount 320 g/ha; grade 0-5 by criteria of Test Example 1
# Summary of the method: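 Treatment timing was the one- to two-leaf stage, with diluted emulsifiable compound dropped onto the paddy water (depth 4 cm) over alluvial soil. All three species grew from a mixed sowing in a 25° C. to 30° C. greenhouse. Injury was judged by eye 3 weeks on.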
Structure (SMILES),"Q: Galium spurium, herbicidal effect grade (Galium spurium [1])","I: Avena fatua, herbicidal effect grade (Avena fatua)","R: Veronica persica, herbicidal effect grade (Veronica persica [2])","b: directly sowed rice plant, effect on crop (criteria 0-5) (rice plant)","herbicidal effect on H (Echinochloa crus-galli var. crus-galli), grade 0-5 [3]","e: wheat, effect grade on crop (wheat)","F: Digitaria ciliaris, herbicidal effect (criteria 0-5) (Digitaria ciliaris)","P: Stellaria media, herbicidal effect grade (Stellaria media)","Q: Galium spurium, herbicidal effect (criteria 0-5) (Galium spurium [4])","g: rapeseed, effect grade on crop (rapeseed)","R: Veronica persica, herbicidal effect (criteria 0-5) (Veronica persica [5])","Herbicidal effect grade, C: Monochoria vaginalis (Monochoria vaginalis)"
CON=C(C)CC1CC(OS(=O)(=O)CCCCl)=C(c2c(C)cc(C)cc2C)C1=O (centres unmarked) [1-142],0 (Herbicidal ratio of 5% or lower (almost no effect)),3 (Herbicidal ratio of 40% or higher and lower than 70%),0 (Herbicidal ratio of 5% or lower (almost no effect)),5 (Herbicidal ratio of 90% or more (almost completely withered)),5 (Herbicidal ratio of 90% or more (almost completely withered)),3 (Herbicidal ratio of 40% or higher and lower than 70%),5 (Herbicidal ratio of 90% or more (almost completely withered)),0 (Herbicidal ratio of 5% or lower (almost no effect)),3 (Herbicidal ratio of 40% or higher and lower than 70%),3 (Herbicidal ratio of 40% or higher and lower than 70%),3 (Herbicidal ratio of 40% or higher and lower than 70%),
CON=C(C)CC1CC(OS(=O)(=O)CC[Si](C)(C)C)=C(c2c(C)cc(C)cc2C)C1=O (centres unmarked) [1-144],0 (Herbicidal ratio of 5% or lower (almost no effect)),2 (Herbicidal ratio of 20% or higher and lower than 40%),0 (Herbicidal ratio of 5% or lower (almost no effect)),5 (Herbicidal ratio of 90% or more (almost completely withered)),5 (Herbicidal ratio of 90% or more (almost completely withered)),0 (Herbicidal ratio of 5% or lower (almost no effect)),5 (Herbicidal ratio of 90% or more (almost completely withered)),0 (Herbicidal ratio of 5% or lower (almost no effect)),2 (Herbicidal ratio of 20% or higher and lower than 40%),2 (Herbicidal ratio of 20% or higher and lower than 40%),3 (Herbicidal ratio of 40% or higher and lower than 70%),2 (Herbicidal ratio of 20% or higher and lower than 40%)
CON=C(C)CC1CC(OC(=O)N2CCCC2)=C(c2c(C)cc(C)cc2C)C1=O (centres unmarked) [1-150],0 (Herbicidal ratio of 5% or lower (almost no effect)),2 (Herbicidal ratio of 20% or higher and lower than 40%),0 (Herbicidal ratio of 5% or lower (almost no effect)),5 (Herbicidal ratio of 90% or more (almost completely withered)),5 (Herbicidal ratio of 90% or more (almost completely withered)),1 (Herbicidal ratio of 5% or higher and lower than 20%),5 (Herbicidal ratio of 90% or more (almost completely withered)),0 (Herbicidal ratio of 5% or lower (almost no effect)),0 (Herbicidal ratio of 5% or lower (almost no effect)),0 (Herbicidal ratio of 5% or lower (almost no effect)),0 (Herbicidal ratio of 5% or lower (almost no effect)),1 (Herbicidal ratio of 5% or higher and lower than 20%)
